Measurements from patent publication US11612603B1, “3-triazolyl methyl-1,3,5-triazine-2,4-dione compounds and preparation method and application thereof” (priority 2022, dated 2023).
Values joined by “and” are separate entries in the source; they are usually repeats but may differ in a detail not shown here. Equal entries are not always repeated.

Key:
SARS-CoV-2 3CL^pro = SARS-CoV-2 3CL^pro (Severe acute respiratory syndrome coronavirus 2 (2019-nCoV) (SARS-CoV-2), UniProt P0DTD1); assay: biochemical; settings: for IC50: 3CL^pro FRET
A549 cells = assay: In vitro cytotoxicity, MTT method, A549 cells; assay type: cell-based; settings: for A549 cell viability: 24 h, MTT
Method: (§1) HepG2, HEK293 and A549 cells were taken in logarithmic growth phase, digested with trypsin to prepare cell suspensions. The cell density was adjusted to 5×10^4 cells/mL, inoculating 180 μL per well in a sterile 96-well cell culture plate, incubating for 24 h at 37° C. in a 5% CO2 incubator. After the cells were attached to the bottom of the well plate, 20 μL of the drug solutions in a concentration gradient were added to each well, and 6 duplicate wells were set up in parallel, including blank group (no cells, no compounds) and control groups (no compounds). After incubating for 24 h at 37° C. in a 5% CO2 constant temperature incubator, 20 μL of 5 g/L MTT solution was added to each well for 4 h. After the incubation, the culture medium in the wells was gently aspirated, 100 μL of DMSO was added to each well, and the cells were shaken at low speed for 10 min on a shaker to fully dissolve the crystals to calculate cell viability. Cell viability (%)=(Sample Group GD Value−Blank Group GD Value)/(Control Group GD Value−Blank Group GD Value)

HepG2 cells = assay: In vitro cytotoxicity, MTT method, HepG2 cells; assay type: cell-based; settings: for HEPG2 cell viability: 24 h, MTT
Method: as §1

HEK293 cells = assay: In vitro cytotoxicity, MTT method, HEK293 cells; assay type: cell-based; settings: for HEK293 cell viability: 24 h, MTT
Method: as §1

(E)-6-(6-chloro-2-methyl-2H-indazol-5-yl)imino)-3-(1-ethyl-1H-1,2,3-triazole-5-yl)methyl)-1-(4-fluorobenzyl)-1,3,5-triazine-2,4-dione [Compound 20]
IC50 (SARS-CoV-2 3CL^pro; class symbols): 200 to 500 nM

Cc1cc(C)cc(Cn2c(=O)n(Cc3cnn[nH]3)c(=O)[nH]/c2=N\c2cc3cn(C)nc3cc2Cl)c1 [Compound 13]
IC50 (SARS-CoV-2 3CL^pro; class symbols): 500 to 1000 nM

Cn1cc2cc(/N=c3\[nH]c(=O)n(Cc4cnn[nH]4)c(=O)n3Cc3cc(F)c(F)cc3F)c(Cl)cc2n1 [Compound 1]
A549 cell viability (A549 cells; 1.5625 nM): 99.46%
A549 cell viability (A549 cells; 3.125 nM): 98.65%
A549 cell viability (A549 cells; 6.25 nM): 98.82%
A549 cell viability (A549 cells; 12.5 nM): 98.93%
A549 cell viability (A549 cells; 25 nM): 98.71%
A549 cell viability (A549 cells; 50 nM): 98.76%
A549 cell viability (A549 cells; 100 nM): 98.69%
A549 cell viability (A549 cells; 200 nM): 95.01%
A549 cell viability (A549 cells; 400 nM): 93.02%
inhibitory rate on A549 cells compared with positive drugs (A549 cells; at any concentration): lower than that of PF-07321332 and S-217622
HEPG2 cell viability (HepG2 cells; 1.5625 nM): 97.09%
HEPG2 cell viability (HepG2 cells; 3.125 nM): 96.29%
HEPG2 cell viability (HepG2 cells; 6.25 nM): 97.83%
HEPG2 cell viability (HepG2 cells; 12.5 nM): 95.39%
HEPG2 cell viability (HepG2 cells; 25 nM): 90.35%
HEPG2 cell viability (HepG2 cells; 50 nM): 88.09%
HEPG2 cell viability (HepG2 cells; 100 nM): 87.72%
HEPG2 cell viability (HepG2 cells; 200 nM): 85.58%
HEPG2 cell viability (HepG2 cells; 400 nM): 82.62%
inhibitory rate on HepG2 cells compared with positive drugs (HepG2 cells; at any concentration): lower than that of PF-07321332 and S-217622
IC50 (SARS-CoV-2 3CL^pro): 92.6 nM
inhibition at 0.0001 µM (SARS-CoV-2 3CL^pro; Conc 0.1 nM, read-out: Inhibitory activity on 3CL^pro (inhibition rate)): 1.68%
inhibition at 0.001 µM (SARS-CoV-2 3CL^pro; Conc 1 nM, read-out: Inhibitory activity on 3CL^pro (inhibition rate)): 2.35%
inhibition at 0.005 µM (SARS-CoV-2 3CL^pro; Conc 5 nM, read-out: Inhibitory activity on 3CL^pro (inhibition rate)): 7.62%
inhibition at 0.01 µM (SARS-CoV-2 3CL^pro; Conc 10 nM, read-out: Inhibitory activity on 3CL^pro (inhibition rate)): 10.9%
inhibition at 0.02 µM (SARS-CoV-2 3CL^pro; Conc 20 nM, read-out: Inhibitory activity on 3CL^pro (inhibition rate)): 15.2%
inhibition at 0.03 µM (SARS-CoV-2 3CL^pro; Conc 30 nM, read-out: Inhibitory activity on 3CL^pro (inhibition rate)): 20.8%
inhibition at 0.05 µM (SARS-CoV-2 3CL^pro; Conc 50 nM, read-out: Inhibitory activity on 3CL^pro (inhibition rate)): 26.2%
inhibition at 0.1 µM (SARS-CoV-2 3CL^pro; Conc 100 nM, read-out: Inhibitory activity on 3CL^pro (inhibition rate)): 59.3%
inhibition at 0.5 µM (SARS-CoV-2 3CL^pro; Conc 500 nM, read-out: Inhibitory activity on 3CL^pro (inhibition rate)): 82.5%
inhibition at 1 µM (SARS-CoV-2 3CL^pro; Conc 1000 nM, read-out: Inhibitory activity on 3CL^pro (inhibition rate)): 96.2%
HEK293 cell viability (HEK293 cells; 1.5625 nM): 99.03%
HEK293 cell viability (HEK293 cells; 3.125 nM): 96.70%
HEK293 cell viability (HEK293 cells; 6.25 nM): 94.02%
HEK293 cell viability (HEK293 cells; 12.5 nM): 89.50%
HEK293 cell viability (HEK293 cells; 25 nM): 86.03%
HEK293 cell viability (HEK293 cells; 50 nM): 88.49%
HEK293 cell viability (HEK293 cells; 100 nM): 84.87%
HEK293 cell viability (HEK293 cells; 200 nM): 83.54%
HEK293 cell viability (HEK293 cells; 400 nM): 81.17%
inhibitory rate on HEK293 cells compared with positive drugs (HEK293 cells; at any concentration): lower than that of PF-07321332 and S-217622

Cn1cc2cc(/N=c3\[nH]c(=O)n(Cc4cnn[nH]4)c(=O)n3Cc3cc(F)cc(F)c3)c(Cl)cc2n1 [Compound 15]
IC50 (SARS-CoV-2 3CL^pro): < 200 nM

Cn1cc2cc(/N=c3\[nH]c(=O)n(Cc4cnn[nH]4)c(=O)n3Cc3ccc(F)cc3)c(Cl)cc2n1 [Compound 8]
IC50 (SARS-CoV-2 3CL^pro; class symbols): 200 to 500 nM

Cn1cc2cc(/N=c3\[nH]c(=O)n(Cc4cnn[nH]4)c(=O)n3Cc3ccc([N+](=O)[O-])cc3)c(Cl)cc2n1 [Compound 5]
IC50 (SARS-CoV-2 3CL^pro; class symbols): 200 to 500 nM

COc1cc(Cn2c(=O)n(Cc3cnn[nH]3)c(=O)[nH]/c2=N\c2cc3cn(C)nc3cc2Cl)cc(OC)c1 [Compound 14]
IC50 (SARS-CoV-2 3CL^pro; class symbols): 500 to 1000 nM

Cn1cc2cc(/N=c3\[nH]c(=O)n(Cc4cnn[nH]4)c(=O)n3Cc3ccccc3)c(Cl)cc2n1 [Compound 2]
IC50 (SARS-CoV-2 3CL^pro; class symbols): 500 to 1000 nM

Cn1cc2cc(/N=c3\[nH]c(=O)n(Cc4cnn[nH]4)c(=O)n3Cc3ccc(C(C)(C)C)cc3)c(Cl)cc2n1 [Compound 4]
IC50 (SARS-CoV-2 3CL^pro; class symbols): 500 to 1000 nM

Cc1ccc(Cn2c(=O)n(Cc3cnn[nH]3)c(=O)[nH]/c2=N\c2cc3cn(C)nc3cc2Cl)cc1 [Compound 3]
IC50 (SARS-CoV-2 3CL^pro; class symbols): 500 to 1000 nM

(E)-6-(6-chloro-2-methyl-2H-indazol-5-yl)imino)-3-(1-ethyl-1H-1,2,3-triazole-5-yl)methyl)-1-(2,4,5-trifluorobenzyl)-1,3,5-triazine-2,4-dione [Compound 17]
IC50 (SARS-CoV-2 3CL^pro): < 200 nM and < 100 nM and 123 nM
IC50 (SARS-CoV-2 3CL^pro; class symbols): < 100 nM
Inhibitory activity on 3CL^pro (inhibition rate) (SARS-CoV-2 3CL^pro; Conc 0.1 nM): 0.65%
Inhibitory activity on 3CL^pro (inhibition rate) (SARS-CoV-2 3CL^pro; Conc 1 nM): 5.00%
Inhibitory activity on 3CL^pro (inhibition rate) (SARS-CoV-2 3CL^pro; Conc 5 nM): 8.20%
Inhibitory activity on 3CL^pro (inhibition rate) (SARS-CoV-2 3CL^pro; Conc 10 nM): 15.16%
Inhibitory activity on 3CL^pro (inhibition rate) (SARS-CoV-2 3CL^pro; Conc 20 nM): 18.22%
Inhibitory activity on 3CL^pro (inhibition rate) (SARS-CoV-2 3CL^pro; Conc 30 nM): 24.39%
Inhibitory activity on 3CL^pro (inhibition rate) (SARS-CoV-2 3CL^pro; Conc 50 nM): 33.16%
Inhibitory activity on 3CL^pro (inhibition rate) (SARS-CoV-2 3CL^pro; Conc 100 nM): 45.44%
Inhibitory activity on 3CL^pro (inhibition rate) (SARS-CoV-2 3CL^pro; Conc 500 nM): 70.62%
Inhibitory activity on 3CL^pro (inhibition rate) (SARS-CoV-2 3CL^pro; Conc 1000 nM): 89.73%
